{"source": "patent US20060205822A1", "about": "“1-Aminocyclohexane derivatives for the treatment of multiple sclerosis, emotional lability and pseudobulbar affect” (Forest Laboratories, Inc., priority 2004, published 2006)", "key": {"[1]": {"test_system": "spastic hind limbs of EAE mice", "assay": "Spasticity (resistance to hindlimb flexion against a strain gauge) in the EAE model in mice", "format": "in vivo, ABH mice", "design": "Resistance to flexion, Diff of Means: unit not given here", "source_text": "Induction of EAE. Induction of EAE in animal models is well known in the art. (Raine, Chapter 16, Handbook of Clinical Neurology, vol. 3(47): Demyelinating Diseases, Koetsier, ed., (Elsevier Science Publishers 1985). In the present protocol, 6-8 week ABH mice are immunized with mouse spinal cord homogenate in Freund's complete adjuvant on day 0 & 7. (Baker et al. 1990. J. Neuroimmunol 28:261 O'Neill et al 1992. J. Neuroimmunol. 38:53). Animals will develop relapsing remitting episodes of paralysis at approximately 3-4 week intervals. These will be monitored daily from day 11 onwards to ensure severity levels of paralysis and maintained with humane limits according to the Home Office, Animals (Scientific Procedures) Act […]. Spasticity (stiff hind limbs) after 2-3 relapse episodes (approximately 80-120 days post-induction) will be allowed to develop. Animals with visually spastic limbs will be selected for assessment of the TEST compound.\nResistance to flexion against a strain gauge will be the primary assessment (Baker et al. 2000. Nature), secondary outcome measures will be the presence or absence of spastic tails.\nSpasticity. The “stiffness” of spastic limbs is measured using a purpose built strain gauge, and assessed by the resistance force against hindlimb flexion. The limb is extended manually twice prior to measurement of each limb. Limbs showing severe crossing or flexion will not be analyzed. The signal is amplified and digitized using DAS16 card (Amplicon, Brighton UK.) and acquired using Dacquire V10 software and analyzed using Spike 2 software (Baker et al 2000). Left and right hindlimbs are analyzed alternately and typically 5-8 readings per limb were measured at each time point. The mean values will be calculated and converted to forces in Newtons. Data will be analyzed using one-way repeated measures analysis of variance (ANOVA) incorporating Student-Newman-Keuls posthoc test. Differences to baseline will also be compared using Paired t tests.\nAdministration of compound. The TEST compounds are dissolved in vehicle (to be supplied by the SPONSOR-preferably this will be a saline solution) using doses (to be supplied by the SPONSOR). These will be delivered by the intravenous, intraperitoneal or oral route (to be supplied by the sponsor). Resistance to flexion will be assessed at 10 minutes 30 minutes and 60 minutes following intravenous, intraperitoneal injection, 30, 60 and 90 minutes after oral administration. (Escalating doses (up to three) may be used in the same cohort of animals following wash-out to allow for direct comparison of the dose response)."}, "NMDA receptor": {"test_system": "NMDA receptor", "settings": "noncompetitive antagonist; cited from earlier work"}, "[2]": {"test_system": "thermal hyperalgesia and mechanical allodynia", "settings": "relatively high doses; without obvious effects on motor reflexes; cited from earlier work"}, "adult rats": {"test_system": "adult rats", "settings": "cited from earlier work"}, "[3]": {"test_system": "acquired pendular nystagmus", "settings": "physical symptom of multiple sclerosis; cited from earlier work"}}}
{"smiles": "CC1(C)CC(C)(C)CC(C)(N)C1", "note": "[Neramexane, 1-amino-1,3,3,5,5-pentamethylcyclohexane]", "values": [{"measurement": "Resistance to flexion, Diff of Means", "setting": "[1]; 3.1 mg/kg, 0 min vs. 10 min, P<0.001", "value": 0.171}, {"measurement": "Resistance to flexion, Diff of Means", "setting": "[1]; 3.1 mg/kg, 0 min vs. 30 min, P<0.001", "value": 0.142}, {"measurement": "Resistance to flexion, Diff of Means", "setting": "[1]; 3.1 mg/kg, 0 min vs. 60 min, P<0.001", "value": 0.218}, {"measurement": "Resistance to flexion, Mean", "setting": "[1]; 3.1 mg/kg, 10 min post-injection, baseline 0 min 0.593, N=13", "value": 0.422, "unit": "N"}, {"measurement": "Resistance to flexion, Diff of Means", "setting": "[1]; 3.1 mg/kg, 10 min vs. 60 min, P 0.228, Do Not Test", "value": 0.0474}, {"measurement": "Resistance to flexion, Mean", "setting": "[1]; 3.1 mg/kg, 30 min post-injection, baseline 0 min 0.593, N=13", "value": 0.451, "unit": "N"}, {"measurement": "Resistance to flexion, Diff of Means", "setting": "[1]; 3.1 mg/kg, 30 min vs. 10 min, P 0.453, Do Not Test", "value": 0.0293}, {"measurement": "Resistance to flexion, Diff of Means", "setting": "[1]; 3.1 mg/kg, 30 min vs. 60 min, P 0.130, not significant", "value": 0.0767}, {"measurement": "Resistance to flexion, Mean", "setting": "[1]; 3.1 mg/kg, 60 min post-injection, baseline 0 min 0.593, N=13", "value": 0.374, "unit": "N"}, {"measurement": "Resistance to flexion, Diff of Means", "setting": "[1]; 6.2 mg/kg, 0 min vs. 10 min, P 0.999, not significant", "value": 0.0000691}, {"measurement": "Resistance to flexion, Diff of Means", "setting": "[1]; 6.2 mg/kg, 0 min vs. 30 min, P 0.013", "value": 0.117}, {"measurement": "Resistance to flexion, Diff of Means", "setting": "[1]; 6.2 mg/kg, 0 min vs. 60 min, P<0.001", "value": 0.172}, {"measurement": "Resistance to flexion, Mean", "setting": "[1]; 6.2 mg/kg, 10 min post-injection, baseline 0 min 0.567, N=11", "value": 0.567, "unit": "N"}, {"measurement": "Resistance to flexion, Diff of Means", "setting": "[1]; 6.2 mg/kg, 10 min vs. 30 min, P 0.005", "value": 0.117}, {"measurement": "Resistance to flexion, Diff of Means", "setting": "[1]; 6.2 mg/kg, 10 min vs. 60 min, P<0.001", "value": 0.172}, {"measurement": "Resistance to flexion, Mean", "setting": "[1]; 6.2 mg/kg, 30 min post-injection, baseline 0 min 0.567, N=11", "value": 0.450, "unit": "N"}, {"measurement": "Resistance to flexion, Diff of Means", "setting": "[1]; 6.2 mg/kg, 30 min vs. 60 min, P 0.162, not significant", "value": 0.0549}, {"measurement": "Resistance to flexion, Mean", "setting": "[1]; 6.2 mg/kg, 60 min post-injection, baseline 0 min 0.567, N=11", "value": 0.395, "unit": "N"}, {"measurement": "Resistance to flexion, Diff of Means", "setting": "[1]; 12.3 mg/kg, 0 min vs. 10 min, P<0.001", "value": 0.114}, {"measurement": "Resistance to flexion, Diff of Means", "setting": "[1]; 12.3 mg/kg, 0 min vs. 30 min, P<0.001", "value": 0.103}, {"measurement": "Resistance to flexion, Diff of Means", "setting": "[1]; 12.3 mg/kg, 0 min vs. 60 min, P<0.001", "value": 0.189}, {"measurement": "Resistance to flexion, Mean", "setting": "[1]; 12.3 mg/kg, 10 min post-injection, baseline 0 min 0.453, N=14", "value": 0.339, "unit": "N"}, {"measurement": "Resistance to flexion, Diff of Means", "setting": "[1]; 12.3 mg/kg, 10 min vs. 60 min, P 0.007", "value": 0.0757}, {"measurement": "Resistance to flexion, Mean", "setting": "[1]; 12.3 mg/kg, 30 min post-injection, baseline 0 min 0.453, N=14", "value": 0.350, "unit": "N"}, {"measurement": "Resistance to flexion, Diff of Means", "setting": "[1]; 12.3 mg/kg, 30 min vs. 10 min, P 0.693, not significant", "value": 0.0106}, {"measurement": "Resistance to flexion, Diff of Means", "setting": "[1]; 12.3 mg/kg, 30 min vs. 60 min, P 0.007", "value": 0.0863}, {"measurement": "Resistance to flexion, Mean", "setting": "[1]; 12.3 mg/kg, 60 min post-injection, baseline 0 min 0.453, N=14", "value": 0.263, "unit": "N"}, {"measurement": "Level of hind limb spasticity", "setting": "[1]; all 3 doses (3.1, 6.2, 12.3 mg/kg), affected EAE mice", "value": "reduced the level of hind limb spasticity"}, {"measurement": "Affinity for the NMDA receptor", "setting": "NMDA receptor", "value": "moderate affinity"}, {"measurement": "Thermal hyperalgesia and mechanical allodynia", "setting": "[2]", "value": "selectively block thermal hyperalgesia and mechanical allodynia"}]}
{"smiles": "CC12CC3CC(C)(C1)CC(N)(C3)C2", "note": "[Memantine, 1-amino-3,5-dimethyl adamantane]", "values": [{"measurement": "Formation of hippocampal long-term potentiation", "setting": "adult rats", "value": "enhance the formation of hippocampal long-term potentiation"}, {"measurement": "Spatial memory abilities", "setting": "adult rats", "value": "improve spatial memory abilities"}, {"measurement": "Affinity for the NMDA receptor", "setting": "NMDA receptor", "value": "moderate affinity"}, {"measurement": "Thermal hyperalgesia and mechanical allodynia", "setting": "[2]", "value": "selectively block thermal hyperalgesia and mechanical allodynia"}, {"measurement": "Treatment of acquired pendular nystagmus", "setting": "[3]", "value": "effective"}]}
